Experimental data as given in patent US9511042B2, “N-acyl amino acid derivatives for treating skin conditions such as cellulite” (HELIX BIOMEDIX INC., priority 2010, dated 2016).

What was measured:
3T3-L1 adipocytes [1] = assay: Cytotoxicity to adipocytes at the concentrations used to stimulate lipolysis; format: cell-based, murine; conditions: at the concentrations used to stimulate lipolysis (data not shown)
Source text: Both HB2031 and HB2032 were not cytotoxic to 3T3-L1 adipocytes at the concentrations used to simulate lipolysis (data not shown).

EpiDerm™ Skin Model = assay: EpiDerm MTT assay for cytotoxicity toward skin tissue; format: cell-based; conditions: for cell viability (OD570) compared to the glycerin vehicle: 100 μg/ml, 2, 5 and 18 hour incubation (FIG. 7); for toxicity to skin tissue: 1 mg/ml for 24 hours (data not shown)
3T3-L1 adipocytes [2] = assay: Lipolysis: free fatty acid release in differentiated adipocytes (BioVision Free Fatty Acid Quantification Kit); format: cell-based, murine; conditions: 100 μg/ml, overnight; for free fatty acids production in adipocytes relative to known lipolysis inducers (FIG. 4): compared with carnitine, resveratrol, isoproterenol, aminophylline, theophylline, caffeine
Protocol: The degree of fatty acid release can be used to gauge the relative level of glycerol release given this correlation. The following methods were used to determine the effect of 4-methyl-2-(octanoylamino) pentanoic acid and N-isopentyloctanamide on lipolysis in adipocytes.
(§1) The induction of lipolysis in differentiated adipocytes was determined in 3T3-L1 adipocytes using a fatty acid assay kit manufactured by BioVision (Mountain View, Calif.) (Free Fatty Acid Quantification Kit, Cat. No. K612-100). Free fatty acid release correlates with an increase in the level of glycerol. Adipocytes for these assays were prepared as follows. 3T3-L1 murine pre-adipocytes were purchased from the American Type Culture Collection (ATCC) (CL-173™). The cells were cultured in complete medium (ATCC-formulated Dulbecco's Modified Eagle's Medium supplemented with 10% bovine calf serum) and allowed to reach 100% confluence. The induction of differentiation or adipogenesis was carried out in complete medium. On day 0, cells were treated with complete medium containing induction agents (100 μg/ml isobutylmethyxanthine (Sigma, St. Louis, Mo.), 5 μg/ml insulin and 2 μg/ml dexamethasone). On day 3, cells were changed to complete medium containing 5 μg/ml insulin and incubated for 2-3 days. Then, cells were maintained in complete medium for 3-6 days when the majority of cells developed observable intracellular lipid droplets.
For analyzing the effects of 4-methyl-2-(octanoylamino) pentanoic acid and N-isopentyloctanamide on lipolysis, cells (adipocytes prepared above) were treated with either of these compounds at 100 μg/ml. Alternatively, cells were treated overnight with certain substances (e.g., resveratrol, isoproterenol, aminophylline, theophylline) (100 μg/ml) previously known to be lipolysis inducers. Supernatant from each of the cultures was measured for relative glycerol release as estimated using the free fatty acid quantification kit from BioVision following the manufacturer's instructions.

3T3-L1 preadipocytes = assay: Adipogenesis assay, Oil red O staining of lipid droplets (Cayman Adipogenesis Assay Kit); format: cell-based, murine
Protocol: as §1
Intracellular lipid droplet production in adipocytes is a feature of adipogenesis. Therefore, adipogenesis was monitored by staining for lipid droplets in cells using the Adipogenesis Assay Kit from Cayman (Ann Arbor, Mich.) following the manufacture's instructions. […]

Question: For `CCCCCCCC(=O)NC(CC(C)C)C(=O)O` (stereo not drawn) [HB2031, 4-methyl-2-(octanoylamino) pentanoic acid], which “cytotoxicity to 3T3-L1 adipocytes” value (3T3-L1 adipocytes [1]) is on record?
Answer: not cytotoxic

Question: What about the “cell viability (OD570) compared to the glycerin vehicle” value (EpiDerm™ Skin Model) of the same compound?
Answer: no difference in cell viability

Question: And the “toxicity to skin tissue” value (EpiDerm™ Skin Model)?
Answer: no toxicity

Question: And the “free fatty acids production compared with isoproterenol, assay in triplicate (FIG. 5)” value (3T3-L1 adipocytes [2])?
Answer: significantly more active than isoproterenol

Question: What about the “free fatty acids production in adipocytes relative to known lipolysis inducers (FIG. 4)” value (3T3-L1 adipocytes [2]) of the same compound?
Answer: to a higher degree than all the other compounds tested

Question: What does the source list for `CCCCCCCC(=O)NCCC(C)C` [HB2032, N-isopentyloctanamide]?
Answer: cytotoxicity to 3T3-L1 adipocytes (3T3-L1 adipocytes [1]): not cytotoxic; cell viability (OD570) compared to the glycerin vehicle (EpiDerm™ Skin Model): no difference in cell viability; toxicity to skin tissue (EpiDerm™ Skin Model): no toxicity; differentiation of cells into adipocytes (enlarged cells, intracellular lipid droplets) (3T3-L1 preadipocytes; 100, 150, 200 μg/ml with adipogenesis inducers for nine days, concentration dependent (FIG. 6C-E)): inhibited the differentiation of cells into adipocytes; intensity of cellular lipid formation (Oil red O staining) (3T3-L1 preadipocytes; low concentration (FIG. 6C, 100 μg/ml), nine days): significantly reduced; free fatty acids production compared with isoproterenol, assay in triplicate (FIG. 5) (3T3-L1 adipocytes [2]): significantly more active than isoproterenol; free fatty acids production in adipocytes relative to known lipolysis inducers (FIG. 4) (3T3-L1 adipocytes [2]): to a higher degree than all the other compounds tested
